Experimental data taken from ChEMBL document CHEMBL3885881, “DrugMatrix”.

Organism: Rattus norvegicus
Experiment: DrugMatrix - Regimen: Daily Repeat
Assay type: toxicity, organism-based, Sprague-Dawley
Set-up: regimen Daily Repeat, gender Male, age 6-8 weeks
Details: in vivo, po, route oral GAVAGE, vehicle 100 % WATER; for BASOPHIL / EOSINOPHIL / ERYTHROCYTE COUNT / HEMATOCRIT / HEMOGLOBIN / LEUKOCYTE COUNT / LYMPHOCYTE / MEAN CORPUSCULAR HEMOGLOBIN / MEAN CORPUSCULAR HEMOGLOBIN CONCENTRATION / MONOCYTE / NEUTROPHIL / PLATELET COUNT: tissue Blood; for ALANINE AMINOTRANSFERASE / ALBUMIN / ALKALINE PHOSPHATASE / ASPARTATE AMINOTRANSFERASE / BLOOD UREA NITROGEN / CHLORIDE / CHOLESTEROL / CREATINE PHOSPHOKINASE / CREATININE / GLUCOSE / PHOSPHORUS / POTASSIUM / SODIUM / TOTAL BILIRUBIN / TOTAL PROTEIN: tissue Plasma
[1] = 0 mg/kg, 72 h, dose level Control, time 3 day
[2] = 0 mg/kg, 120 h, dose level Control, time 5 day
[3] = 755 mg/kg, 72 h, dose level High, time 3 day
[4] = 755 mg/kg, 120 h, dose level High, time 5 day

CCN(CC)CCNC(=O)c1ccc(N)cc1 [PROCAINAMIDE]
BASOPHIL [1]: 0% | EOSINOPHIL [1]: 0.33% | ERYTHROCYTE COUNT [1]: 5.88 x10E6/uL | HEMATOCRIT [1]: 36.47% | HEMOGLOBIN [1]: 14.2 G/DL | LEUKOCYTE COUNT [1]: 9.28 x10E3/uL | LYMPHOCYTE [1]: 82.33% | MEAN CORPUSCULAR HEMOGLOBIN [1]: 24.2 pg | MEAN CORPUSCULAR HEMOGLOBIN CONCENTRATION [1]: 38.97 G/DL | MONOCYTE [1]: 2.33% | NEUTROPHIL [1]: 15% | PLATELET COUNT [1]: 1114 x10E3/uL | ALANINE AMINOTRANSFERASE [1]: 41.17 u/L | ALBUMIN [1]: 3.95 G/DL | ALKALINE PHOSPHATASE [1]: 382.5 u/L | ASPARTATE AMINOTRANSFERASE [1]: 67.33 u/L | BLOOD UREA NITROGEN [1]: 15.5 mg/dL | CHLORIDE [1]: 106.33 MEQ/L | CHOLESTEROL [1]: 77.67 mg/dL | CREATINE PHOSPHOKINASE [1]: 123.33 u/L | CREATININE [1]: 0.62 mg/dL | GLUCOSE [1]: 185.67 mg/dL | PHOSPHORUS [1]: 10.2 mg/dL | POTASSIUM [1]: 6.72 MEQ/L | SODIUM [1]: 149.67 MEQ/L | TOTAL BILIRUBIN [1]: 0.97 mg/dL | TOTAL PROTEIN [1]: 6.58 G/DL | BASOPHIL [2]: 0% | EOSINOPHIL [2]: 0% | ERYTHROCYTE COUNT [2]: 5.99 x10E6/uL | HEMATOCRIT [2]: 36.88% | HEMOGLOBIN [2]: 14.77 G/DL | LEUKOCYTE COUNT [2]: 11.35 x10E3/uL | LYMPHOCYTE [2]: 85.5% | MEAN CORPUSCULAR HEMOGLOBIN [2]: 24.7 pg | MEAN CORPUSCULAR HEMOGLOBIN CONCENTRATION [2]: 40.07 G/DL | MONOCYTE [2]: 1.83% | NEUTROPHIL [2]: 12.67% | PLATELET COUNT [2]: 979.67 x10E3/uL | ALANINE AMINOTRANSFERASE [2]: 36.5 u/L | ALBUMIN [2]: 3.63 G/DL | ALKALINE PHOSPHATASE [2]: 303.5 u/L | ASPARTATE AMINOTRANSFERASE [2]: 61 u/L | BLOOD UREA NITROGEN [2]: 16.5 mg/dL | CHLORIDE [2]: 106.17 MEQ/L | CREATINE PHOSPHOKINASE [2]: 154.83 u/L | CREATININE [2]: 0.6 mg/dL | GLUCOSE [2]: 201 mg/dL | PHOSPHORUS [2]: 10.1 mg/dL | POTASSIUM [2]: 6.85 MEQ/L | SODIUM [2]: 148.17 MEQ/L | TOTAL BILIRUBIN [2]: 0.58 mg/dL | TOTAL PROTEIN [2]: 5.9 G/DL | BASOPHIL [3]: 0% | EOSINOPHIL [3]: 0% | ERYTHROCYTE COUNT [3]: 5.39 x10E6/uL | HEMATOCRIT [3]: 32.67% | HEMOGLOBIN [3]: 13.03 G/DL | LEUKOCYTE COUNT [3]: 10.2 x10E3/uL | LYMPHOCYTE [3]: 85.67% | MEAN CORPUSCULAR HEMOGLOBIN [3]: 24.17 pg | MEAN CORPUSCULAR HEMOGLOBIN CONCENTRATION [3]: 39.9 G/DL | MONOCYTE [3]: 1.33% | NEUTROPHIL [3]: 13% | PLATELET COUNT [3]: 1063.33 x10E3/uL | ALANINE AMINOTRANSFERASE [3]: 43 u/L | ALBUMIN [3]: 3.9 G/DL | ALKALINE PHOSPHATASE [3]: 441.33 u/L | ASPARTATE AMINOTRANSFERASE [3]: 61 u/L | BLOOD UREA NITROGEN [3]: 16 mg/dL | CHLORIDE [3]: 105.33 MEQ/L | CHOLESTEROL [3]: 74.33 mg/dL | CREATINE PHOSPHOKINASE [3]: 142.67 u/L | CREATININE [3]: 0.57 mg/dL | GLUCOSE [3]: 176.33 mg/dL | PHOSPHORUS [3]: 11.97 mg/dL | POTASSIUM [3]: 6.97 MEQ/L | SODIUM [3]: 150.67 MEQ/L | TOTAL BILIRUBIN [3]: 0.6 mg/dL | TOTAL PROTEIN [3]: 6.5 G/DL | BASOPHIL [4]: 0% | EOSINOPHIL [4]: 0% | ERYTHROCYTE COUNT [4]: 5.45 x10E6/uL | HEMATOCRIT [4]: 33.47% | HEMOGLOBIN [4]: 14.6 G/DL | LEUKOCYTE COUNT [4]: 13.8 x10E3/uL | LYMPHOCYTE [4]: 87.67% | MEAN CORPUSCULAR HEMOGLOBIN [4]: 26.87 pg | MEAN CORPUSCULAR HEMOGLOBIN CONCENTRATION [4]: 43.7 G/DL | MONOCYTE [4]: 1.33% | NEUTROPHIL [4]: 11% | PLATELET COUNT [4]: 830.33 x10E3/uL | ALANINE AMINOTRANSFERASE [4]: 40.67 u/L | ALBUMIN [4]: 3.73 G/DL | ALKALINE PHOSPHATASE [4]: 378.67 u/L | ASPARTATE AMINOTRANSFERASE [4]: 63 u/L | BLOOD UREA NITROGEN [4]: 14.33 mg/dL | CHLORIDE [4]: 107.33 MEQ/L | CHOLESTEROL [4]: 74 mg/dL | CREATINE PHOSPHOKINASE [4]: 117.33 u/L | CREATININE [4]: 0.67 mg/dL | GLUCOSE [4]: 180 mg/dL | PHOSPHORUS [4]: 10.5 mg/dL | POTASSIUM [4]: 6.57 MEQ/L | SODIUM [4]: 152.33 MEQ/L | TOTAL BILIRUBIN [4]: 0.53 mg/dL | TOTAL PROTEIN [4]: 6.03 G/DL
